Data published in US12410160B2 (Gilead Sciences, Inc., priority 2021, dated 2025).
Read-outs that look alike come from different tables or passages of the source.

What was measured:
[1] = target: T1, human OATP1B1 (Homo sapiens (Human), UniProt Q9Y6L6); test: In Vitro Substrate Assessment with Human OATP1B1 Transporter; assay type: in vitro ADME; settings: HEK293-OATP1B1 vs mock cells; substrate if uptake ≥2-fold of mock and decreased by ≥30% with known OATP inhibitor
Text: In Vitro Substrate Assessment with Human OATP1B1 and OATP1B3 Transporters
The purpose of this assay was to assess whether test articles (TAs), were substrates for the hepatic uptake transporters organic anion transporting polypeptide (OATP) 1B1 (SLCO1B1) and 1B3 (SLCO1B3) using non-transfected (Mock) and transfected human embryonic kidney (HEK293) cells. […] On assay day, media were removed from the assay plates and cells were washed with Hanks' Balanced Salt Solution (HBSS Buffer) (Corning, Cat. #21-023-CV). Cells were preincubated with HBSS buffer with or without known OATP inhibitors for 30 minutes. […] The incubation period was 2 minutes. Cells were then washed three times with ice cold HBSS buffer and then were immediately extracted with methanol:water (70:30 v:v) containing internal standard labetolol (30 nM). The supernatants were evaporated to dryness on injection plates and reconstituted in 80% water containing 20% acetonitrile and 0.1% formic acid for analysis by liquid chromatography with tandem mass spectrometry (LC-MS-MS).
The rate of uptake into cells was determined by the following formula: Rate of uptake=(A*B)/(C*D)
• A: concentration of compound in cell lysate • B: volume of sample • C: Incubation time • D: millions of cells in sample
A TA was considered a substrate for OATP transporter if: (1) the rate of uptake in the transporter transfected cells was ≥2-fold of the rate of uptake in the mock cells; and (2) the rate of uptake in the transporter transfected cells was decreased by ≥30% in the presence of a known OATP inhibitor.

[2] = target: KHK-C expressed in NRK-52E cells (Homo sapiens (Human), UniProt P50053); test: KHK-C Cell-based Assay (EC50), NRK CTG, fructose-mediated ATP-depletion
[3] = target: human KHK-C (Homo sapiens (Human), UniProt P50053); test: KHK Biochemical Assay (IC50), ADP-Glo, KHK-C; settings: average of at least two separate assays
Procedure, shortened: (§1)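 His-tagged enzyme expressed in BL21 (DE3), Ni-NTA purified. Compounds, serially diluted 1:3 in DMSO, pre-incubated 30 min with enzyme in 50 mM Hepes pH 7.4, 140 mM KCl, 5 mM MgCl2, 0.01% Triton-X, then ATP and fructose added; 4 h at room temperature. ADP formation read by ADP-Glo luminescence.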

[4] = target: T1, human OATP1B1; test: In Vitro Inhibition Assessment with Human OATP1B1 Transporter; assay type: in vitro ADME; settings: HEK293-OATP1B1 cells, probe substrate pravastatin
Procedure, shortened: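 Pravastatin uptake was measured by LC-MS/MS after a 5 min exposure with inhibitor, following a 15 min inhibitor preincubation, in transfected versus mock HEK293 cells. Transport activity was derived as (transfected − mock) with compound over the same difference with solvent. IC50 is the concentration halving maximal activity; final DMSO was 0.4%.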

[5] = system: HepG2 cells; test: F1P Cell-Based Assay (EC50), 13C6-fructose-1-phosphate in HepG2 cells (cell culture medium or 50% human plasma); settings: Homo sapiens
[6] = pKa analysis by capillary electrophoresis (pKa PRO Analyzer, co-solvent method); assay type: physicochemical; settings: methanol/aqueous co-solvent buffers, co-solvent method (60% to 30% methanol buffers)
Procedure, shortened: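 Capillary electrophoresis by the co-solvent method, with 100 μM compound and 1% DMSO in 2 mM HCl or NaOH at 60% methanol.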

[7] = target: human KHK-A (Homo sapiens (Human), UniProt P50053); test: KHK Biochemical Assay (IC50), ADP-Glo, KHK-A; settings: average of at least two separate assays
Procedure, shortened: as §1

[8] = HepG2, HepG2 cells, 50% human plasma, read-out: F1P 50% HP EC50
[9] = HepG2, read-out: F1P 10% FBS EC50, HepG2 cells, cell culture medium (10% FBS)
[10] = pH range 1.7-11.2, read-out: 1st pKa

T1 sequence (Q9Y6L6 whole entry): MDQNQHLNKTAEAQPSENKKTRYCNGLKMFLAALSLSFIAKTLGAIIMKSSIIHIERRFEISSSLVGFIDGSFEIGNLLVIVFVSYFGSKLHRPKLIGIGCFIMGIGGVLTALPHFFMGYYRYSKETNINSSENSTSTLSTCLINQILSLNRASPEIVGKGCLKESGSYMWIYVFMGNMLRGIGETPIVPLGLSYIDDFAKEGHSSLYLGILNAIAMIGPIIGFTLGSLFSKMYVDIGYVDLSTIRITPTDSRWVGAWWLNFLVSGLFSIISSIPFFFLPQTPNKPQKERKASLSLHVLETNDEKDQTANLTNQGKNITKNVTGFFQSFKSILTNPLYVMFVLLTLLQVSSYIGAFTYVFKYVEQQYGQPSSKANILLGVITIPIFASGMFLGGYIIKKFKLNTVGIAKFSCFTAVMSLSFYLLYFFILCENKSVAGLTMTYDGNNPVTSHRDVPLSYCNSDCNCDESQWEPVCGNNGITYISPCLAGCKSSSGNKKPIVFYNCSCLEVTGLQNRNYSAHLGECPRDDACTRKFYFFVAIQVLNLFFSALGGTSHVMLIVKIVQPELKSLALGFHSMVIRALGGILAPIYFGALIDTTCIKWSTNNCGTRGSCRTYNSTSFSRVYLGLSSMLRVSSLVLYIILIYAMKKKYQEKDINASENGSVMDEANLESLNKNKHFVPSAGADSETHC
Chain of KHK-C expressed in NRK-52E cells (P50053 whole entry): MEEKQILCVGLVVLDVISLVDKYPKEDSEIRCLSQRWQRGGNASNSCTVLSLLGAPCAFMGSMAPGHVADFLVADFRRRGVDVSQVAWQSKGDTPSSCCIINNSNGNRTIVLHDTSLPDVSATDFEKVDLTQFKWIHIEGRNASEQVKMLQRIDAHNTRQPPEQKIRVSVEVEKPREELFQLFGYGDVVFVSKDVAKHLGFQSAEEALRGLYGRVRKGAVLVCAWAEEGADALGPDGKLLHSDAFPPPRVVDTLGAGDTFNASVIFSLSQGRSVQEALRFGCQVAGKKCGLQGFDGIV
Chain of human KHK-C (P50053 whole entry): as above
Chain of human KHK-A (P50053 other isoform, or with tags, fused parts or gaps): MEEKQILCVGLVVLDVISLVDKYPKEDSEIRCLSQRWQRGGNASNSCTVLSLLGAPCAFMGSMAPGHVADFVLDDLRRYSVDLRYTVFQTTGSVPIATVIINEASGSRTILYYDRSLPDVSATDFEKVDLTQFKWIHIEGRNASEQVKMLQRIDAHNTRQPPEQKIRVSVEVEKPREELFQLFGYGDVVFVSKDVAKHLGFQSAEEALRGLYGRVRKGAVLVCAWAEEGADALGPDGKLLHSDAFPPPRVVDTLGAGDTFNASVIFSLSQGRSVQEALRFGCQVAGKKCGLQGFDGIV

Row | Compound | OATP1B1 Substrate [1] | EC50 [2] [nM] | IC50 ([3]; ADP-Glo) [nM] | IC50 [4] [nM] | EC50 [5, 8] [nM] | EC50 [5, 9] [nM] | pKa [6, 10] | pKa ([6]; pH range 1.7-11.2, read-out: 2nd pKa) | IC50 [3] [nM] | IC50 [7] [nM]
1 | C[C@H]1[C@H](O)CN1c1nc(-c2ccc3c(c2)OCCNC3=O)c2c(n1)C(F)(F)CC2 [Example 166, 8-(7,7-difluoro-2-((2S,3R)-3-hydroxy-2-methylazetidin-1-yl)-6,7-dihydro-5H-cyclopenta[d]pyrimidin-4-yl)-3,4-dihydrobenzo[f][1,4]oxazepin-5(2H)-one] | YES | 39.7 | 5 | 1740 | 47.3 | 36.7 |  |  |  | 
2 | C[C@H]1[C@H](O)CN1c1nc2c(c(-c3cccc(S(N)(=O)=O)c3)n1)CCC2 [Example 209, 3-[2-[(2S,3R)-3-hydroxy-2-methyl-azetidin-1-yl]-6,7-dihydro-5H-cyclopenta[d]pyrimidin-4-yl]benzenesulfonamide] | YES | 249 |  | 5570 |  |  | 3.54 | 9.45 |  | 
3 | NC1(c2ccc(-c3nc(N4CC[C@@H]4C(F)(F)F)nc4c3CCC4(F)F)cc2)COC1 [Example 696, 3-[4-[7,7-difluoro-2-[(2R)-2-(trifluoromethyl)azetidin-1-yl]-5,6-dihydrocyclopenta[d]pyrimidin-4-yl]phenyl]oxetan-3-amine] |  | 5.7 |  | 5410 | 6.8 | 1.7 | 6.3 |  | 0.5 | 1

Further lines, results first:

Row | OATP1B1 Substrate [1] | EC50 [2] [nM] | IC50 ([3]; ADP-Glo) [nM] | IC50 [4] [nM] | EC50 [5, 8] [nM] | EC50 [5, 9] [nM] | pKa [6, 10] | pKa ([6]; pH range 1.7-11.2, read-out: 2nd pKa) | IC50 [3] [nM] | IC50 [7] [nM] | Compound
4 | YES |  |  | 1190 |  |  |  |  |  |  | C[C@H]1CCN1c1nc(N2C[C@@H]3[C@@H](CC(=O)O)[C@@H]3C2)cc(C(F)(F)F)n1 [Reference Compound 1, reference compound]
5 | YES |  |  | 267 |  |  |  |  |  |  | C[C@H]1CCN1c1nc(N2CC[C@H](CC(=O)O)C2)cc(C(F)(F)F)c1C#N [Reference Compound 2, 2-((R)-1-(5-cyano-6-((S)-2-methylazetidin-1-yl)-4-(trifluoromethyl)pyridin-2-yl)pyrrolidin-3-yl)acetic acid, reference compound]
6 | YES |  |  | 720 |  |  |  |  |  |  | C[C@H]1CCN1c1nc(N2C[C@@H]3[C@@H](CC(=O)O)[C@@H]3C2)c2c(n1)C(F)(F)CC2 [Reference Compound 5, reference compound]
7 | YES |  |  | 960 |  |  |  |  |  |  | C[C@H]1CCN1c1nc(N2C[C@@H]3[C@@H](CC(=O)O)[C@@H]3C2)c2c(n1)C(F)(F)CCC2 [Reference Compound 6, reference compound]
